In patent US20060020110A1, “Synthetic peptides that bind to the hepatitis B virus core and E antigens” (priority 2000, published 2006):

Tests used:
HBcAg [1] = target: T1, HBcAg (Hepatitis B virus genotype D subtype ayw, UniProt P03146); conditions: HBcAg added at 5 μg/ml
Source text: (§1) One approach to rational drug design involves sequential amino acid deletion of a known binding partner starting from either the amino or carboxy termini. Amino-terminal deletions of the binding partners of SEQ. ID. Nos. 5 and 17 were made and these peptide fragments were joined to a support and analyzed for the ability to bind HBcAg. […] ID. […] The amino-terminal deletions of the peptide of SEQ. ID. […] The amino-terminal deletion products of the peptide of SEQ. ID. […] ID.
To determine whether a candidate binding partner bound to HBcAg and/or HbeAg, a multimeric support-based binding assay was performed. Accordingly, synthetic peptides corresponding to the VH and VL domains of the sequenced mAbs were passively adsorbed to 96 well microplates in serial dilutions starting at 200 μg/ml. The peptide coated plates were then incubated with HBcAg and HBeAg serially diluted in PBS-GT. The amount of HBcAg and HBeAg bound by the peptides was then detected using a mAb directed to an epitope common to HBcAg and HBeAg (See Sällberg et al., J General Virology 74:1335-1340 (1993), herein expressly incorportaed by reference in its entirety) diluted 1:3000 in PBS-GT. The quantity of bound mAb was determined by addition by peroxidase labeled rabbit anti-mouse IgG (P260, Dako A S, Denmark). The plates were developed by incubation with ortho-phenylene-diamine (Sigma) and the absorbance at 492 nm was evaluated.
The converse of an aspect of this experiment was also performed. That is, various dilutions of support-bound binding partners (SEQ. ID. Nos. 5, 16, 17, 28, and 29) were contacted with 10 μg/ml of HBcAg and binding was evaluated. ID.

HBcAg [2] = target: T1, HBcAg; conditions: peptide added prior to addition of mAb; uninhibited control mean OD 0.871
Source text: as §1
Variations of the characterization assays described above include competitive binding assays. […] Initial experiments were conducted by contacting binding partner to HBcAg prior to introducing the antibody. […] ID. […] ID. […] ID. […] ID. […] ID. […] ID.

HBcAg [3] = target: T1, HBcAg; conditions: for OD at 490 nm, bound peptide SEQ. ID. No. 74: HBcAg coated 1 μg/ml, 5 μg SEQ. ID. No. 74 + 5 μg HBcAg peptide, no inhibitor OD 1.454; for Std. Deviation from the mean: deviation of the OD from the mean OD of all peptides
Protocol: In this experiment, microplates were coated overnight with 1 μg/ml HBcAg and, subsequently, a 100 μl mixture containing 5 μg of the peptide […] […] The HBcAg peptides were approximately 20 amino acids in length and corresponded to regions of HBcAg spanning amino acid residues 11-183. The experiment was performed in triplicate.

T1 sequence (P03146 whole entry, the tested form may be a part): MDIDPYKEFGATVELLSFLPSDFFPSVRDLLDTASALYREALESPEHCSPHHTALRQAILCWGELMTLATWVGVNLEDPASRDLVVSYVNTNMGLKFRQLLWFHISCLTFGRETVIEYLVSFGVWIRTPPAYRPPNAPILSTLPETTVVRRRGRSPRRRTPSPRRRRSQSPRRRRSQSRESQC

## TSSYSYMHWY [SEQ. ID. No. 62]
HBcAg [1]
  OD at 490 nm, HBcAg binding to support-bound amino terminal deletion peptides: 0.317

## GYIFTS [SEQ. ID. No. 52]
HBcAg [1]
  OD at 490 nm, HBcAg binding to support-bound amino terminal deletion peptides: 0.414
HBcAg [2]
  OD at 490 nm, mAb 4-2 binding to HBcAg: 0.903

## SCRASQSVSTSSYSYMHWY [SEQ. ID. No. 53]
HBcAg [1]
  OD at 490 nm, HBcAg binding to support-bound amino terminal deletion peptides: 1.452

## ATVELLSFLPSDFFPSVRDL [SEQ. ID. No. 96]
HBcAg [3]
  OD at 490 nm, bound peptide SEQ. ID. No. 74: 1.387
  Std. Deviation from the mean: 0.696

## PSPRRRRSQSPRRRRSQSRESQC [SEQ. ID. No. 111]
HBcAg [3]
  OD at 490 nm, bound peptide SEQ. ID. No. 74: 0.678
  Std. Deviation from the mean: −0.734

## LSCKASGYIFTS [SEQ. ID. No. 46]
HBcAg [1]
  OD at 490 nm, HBcAg binding to support-bound amino terminal deletion peptides: 0.565
HBcAg [2]
  OD at 490 nm, mAb 4-2 binding to HBcAg: 0.777

## SYMHWY [SEQ. ID. No. 65]
HBcAg [1]
  OD at 490 nm, HBcAg binding to support-bound amino terminal deletion peptides: 0.218

## WVGVNLEDPASRDLVVSYVN [SEQ. ID. No. 102]
HBcAg [3]
  OD at 490 nm, bound peptide SEQ. ID. No. 74: 1.411
  Std. Deviation from the mean: 0.744

## STLPETTVVRRRGRSPRRRT [SEQ. ID. No. 109]
HBcAg [3]
  OD at 490 nm, bound peptide SEQ. ID. No. 74: 0.811
  Std. Deviation from the mean: −0.466

## STSSYSYMHWY [SEQ. ID. No. 61]
HBcAg [1]
  OD at 490 nm, HBcAg binding to support-bound amino terminal deletion peptides: 0.372

## KLSCKASGYIFTS [SEQ. ID. No. 45]
HBcAg [1]
  OD at 490 nm, HBcAg binding to support-bound amino terminal deletion peptides: 3.694
HBcAg [2]
  OD at 490 nm, mAb 4-2 binding to HBcAg: 0.808

## SCKASGYIFTS [SEQ. ID. No. 47]
HBcAg [1]
  OD at 490 nm, HBcAg binding to support-bound amino terminal deletion peptides: 0.297
HBcAg [2]
  OD at 490 nm, mAb 4-2 binding to HBcAg: 0.784

## RASQSVSTSSYSYMHWY [SEQ. ID. No. 55]
HBcAg [1]
  OD at 490 nm, HBcAg binding to support-bound amino terminal deletion peptides: 0.429

## LWFHISCLTFGRETVIEYLV [SEQ. ID. No. 105]
HBcAg [3]
  OD at 490 nm, bound peptide SEQ. ID. No. 74: 1.129
  Std. Deviation from the mean: .175

## YSYMHWY [SEQ. ID. No. 64]
HBcAg [1]
  OD at 490 nm, HBcAg binding to support-bound amino terminal deletion peptides: 0.245

## KPGASVKLSCKASGYIFTS [SEQ. ID. No. 39]
HBcAg [1]
  OD at 490 nm, HBcAg binding to support-bound amino terminal deletion peptides: 1.337
HBcAg [2]
  OD at 490 nm, mAb 4-2 binding to HBcAg: 0.202

## ASVKLSCKASGYIFTS [SEQ. ID. No. 42]
HBcAg [1]
  OD at 490 nm, HBcAg binding to support-bound amino terminal deletion peptides: 3.219
HBcAg [2]
  OD at 490 nm, mAb 4-2 binding to HBcAg: 0.207

## RRGRSPRRRTPSPRRRRSQS [SEQ. ID. No. 110]
HBcAg [3]
  OD at 490 nm, bound peptide SEQ. ID. No. 74: 0.732
  Std. Deviation from the mean: −0.625

## KASGYIFTS [SEQ. ID. No. 49]
HBcAg [1]
  OD at 490 nm, HBcAg binding to support-bound amino terminal deletion peptides: 0.237
HBcAg [2]
  OD at 490 nm, mAb 4-2 binding to HBcAg: 0.866

## ASQSVSTSSYSYMHWY [SEQ. ID. No. 56]
HBcAg [1]
  OD at 490 nm, HBcAg binding to support-bound amino terminal deletion peptides: 0.324

## SSYSYMHWY [SEQ. ID. No. 63]
HBcAg [1]
  OD at 490 nm, HBcAg binding to support-bound amino terminal deletion peptides: 0.311

## LDTASALYREALESPEHCSP [SEQ. ID. No. 98]
HBcAg [3]
  OD at 490 nm, bound peptide SEQ. ID. No. 74: 1.589
  Std. Deviation from the mean: 1.103

## GASVKLSCKASGYIFTS [SEQ. ID. No. 41]
HBcAg [1]
  OD at 490 nm, HBcAg binding to support-bound amino terminal deletion peptides: 2.863
HBcAg [2]
  OD at 490 nm, mAb 4-2 binding to HBcAg: 0.205

## GRETVIEYLVSFGVWIRTPP [SEQ. ID. No. 106]
HBcAg [3]
  OD at 490 nm, bound peptide SEQ. ID. No. 74: 0.832
  Std. Deviation from the mean: −0.423
